# Measured values as given in patent US20230405315A1, “Compositions And Methods For Treating With A Combination Of Alternating Electric Fields And FGF Inhibitors” (NOVOCURE GMBH, priority 2022, published 2023).
# Columns and labels:
# [1] = tested on: GBM biopsy specimen (SRA4, SRC1, SRC2, SRB2, and SRA5) glioblastoma stem cells; assay: Cell survival to TTFields in the presence of FGFR1 inhibitor; type: cell-based; details: 5 GBM biopsy specimen, 3 days of TTFields 200 kHz and PMGB 125 nM
# Experimental: (§1) This study focuses on the involvement of FGFR1 in the control of sensitivity to TTFields. The study was performed on several glioblastoma stem cells (GSC) fully characterized in vitro and in vivo that were obtained from clinical trial STEMRI (NCT01872221) at Institut Claudius Regaud. The inventors wish to thank Institut Claudius Regaud for providing the glioblastoma stem cells used in these experiments.
# The mechanism of radiation to induce cell death can be a result of DNA damage which leads to apoptosis, because it is known that TTFields also generate DNA damage and reduce the DNA repair mechanism. Radio sensitization is […] following addition of FGFR inhibitor. There is increased sensitivity to TTFields when there is concomitant treatment with FGFR inhibition which indicates a synergistic result of increased secretion of FGF family members in serum and conditioned media following TTFields application, thus explaining the reduced sensitivity of cells to TTFields.
# [2] = tested on: FGF1, 2, 3, or 4; details: comparison with lenvatinib (nonselective inhibitor of FGFR); cited from earlier work
# [3] = tested on: FGFR1 mRNA expression in SRC1 and SRC2 glioblastoma stem cells; assay: FGFR1 mRNA expression by qPCR in glioblastoma stem cells treated with TTFields and FGFR inhibitor; type: cell-based; details: PMGB 125 nM concomitantly with TTFields 200 kHz for 3 days
# Experimental: FGFR1 mRNA level was quantified by qPCR in SRC1 and SRC2 glioblastoma stem cells after 3 days treatment with TTFields (200 kHz). Results are expressed in Fold change of FGFR1 expression in cells treated with TTFields compared to FGFR1 expression in non treated cells with TTFields.
# Pemigatininb (PMGB) is an FGFR inhibitor. SRC1 and SRC2 were treated concomitantly with PMGB (125 nM) and TTFields (200 kHz) for 3 days. Results are expressed in Fold change of FGFR1 expression in cells treated with TTFields compared to FGFR1 expression in control cells.
# as §1
compound,measurement,setting,value
CCN1C(=O)N(c2c(F)c(OC)cc(OC)c2F)Cc2cnc3[nH]c(CN4CCOCC4)cc3c21 [Pemigatinib],Cytotoxic effect / cell survival,[1],cytotoxic effect
same,"IC50 against at least one of FGF1, 2, 3, or 4, compared with lenvatinib",[2],significantly lower IC50
same,FGFR1 mRNA expression induced by TTFields (fold change vs control cells),[3]; listed as PMGB,inhibited
same,FGFR1 mRNA expression induced by TTFields (fold change vs control cells),[3]; listed as pemigatinib,inhibition
